# In patent publication US11446287B2, “Compounds and methods for EP300 or CBP modulation and indications therefor” (Opna Immuno-Oncology SA, priority 2019, dated 2022):
# Target: T1, Recombinant human CBP containing the bromodomain (CBP-BD (1043-1159)) (Homo sapiens, UniProt Q92793)
# T1 construct: Recombinant human CBP bromodomain (CBP-BD (1043-1159)); made in house; host or cells: E. coli BL21-CodonPlus (DE3), modified pET vector
# Assay: CBP Alphascreen binding assay
# Conditions: read-out: CREBBP (CBP) IC50
# Summary of the method: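 Buffer: 50 mM HEPES pH 7.5, 50 mM NaCl, 0.01% BSA, 0.01% Triton X-100, 2 mM DTT. The signal was normalised to plate controls and fitted with a four-parameter curve to give IC50.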
# T1 sequence (Q92793 1081-1197): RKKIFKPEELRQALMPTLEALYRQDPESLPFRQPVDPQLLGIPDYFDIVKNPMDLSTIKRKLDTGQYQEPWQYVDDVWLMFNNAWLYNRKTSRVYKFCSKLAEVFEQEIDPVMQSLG
row,Compound,IC50
1,"COc1cc(C(=O)O)ncc1-c1cn(C(C2CC2)C2CC2)c2ncc(-c3c(C)noc3C)cc12 [P-0339, 5-(1-(dicyclopropylmethyl)-5-(3,5-dimethylisoxazol-4-yl)-1H-pyrrolo[2,3-b]pyridin-3-yl)-4-methoxypicolinic acid]",0.1 to 1000 nM
2,"Cc1noc(C)c1-c1cnc2c(c1)c(-c1c(Cl)cc(C(=O)O)cc1OCC(F)F)cn2C(C1CC1)C1CC1 [P-0340, 3-chloro-4-(1-(dicyclopropylmethyl)-5-(3,5-dimethylisoxazol-4-yl)-1H-pyrrolo[2,3-b]pyridin-3-yl)-5-(2,2-difluoroethoxy)benzoic acid]",0.1 to 1000 nM
3,"Cc1noc(C)c1-c1cnc2c(c1)c(-c1ccc(C(=O)O)cc1OC1CCC1)cn2C1CCOCC1 [P-0341, 3-cyclobutoxy-4-(5-(3,5-dimethylisoxazol-4-yl)-1-(tetrahydro-2H-pyran-4-yl)-1H-pyrrolo[2,3-b]pyridin-3-yl)benzoic acid]",0.1 to 1000 nM
4,"Cc1noc(C)c1-c1cnc2c(c1)c(-c1ccc(C(=O)O)cc1OC(C)C)c(C)n2C(C1CC1)C1CC1 [P-0342, 4-(1-(dicyclopropylmethyl)-5-(3,5-dimethylisoxazol-4-yl)-2-methyl-1H-pyrrolo[2,3-b]pyridin-3-yl)-3-isopropoxybenzoic acid]",0.1 to 1000 nM
5,"Cc1noc(C)c1-c1cnc2c(c1)c(-c1ccc(C(=O)O)cc1OC(F)(F)F)c(C)n2C(C1CC1)C1CC1 [P-0343, 4-(1-(dicyclopropylmethyl)-5-(3,5-dimethylisoxazol-4-yl)-2-methyl-1H-pyrrolo[2,3-b]pyridin-3-yl)-3-(trifluoromethoxy)benzoic acid]",0.1 to 1000 nM
6,"Cc1noc(C)c1-c1ccc2c(c1)c(-c1ccc(C(=O)O)cc1OC(F)(F)F)cn2C(C1CC1)C1CC1 [P-0344, 4-(1-(dicyclopropylmethyl)-5-(3,5-dimethylisoxazol-4-yl)-1H-indol-3-yl)-3-(trifluoromethoxy)benzoic acid]",0.1 to 1000 nM
7,"Cc1noc(C)c1-c1cnc2c(c1)c(-c1ccc(C(=O)O)cc1OC(F)(F)F)c(C)n2-c1ncccc1C#N [P-0345, 4-(1-(3-cyanopyridin-2-yl)-5-(3,5-dimethylisoxazol-4-yl)-2-methyl-1H-pyrrolo[2,3-b]pyridin-3-yl)-3-(trifluoromethoxy)benzoic acid]",0.1 to 1000 nM
8,"Cc1noc(C)c1-c1cnc2c(c1)c(-c1c(Cl)cc(C(=O)O)cc1OC(F)(F)F)cn2[C@H]1CCOC1 [P-0346, (S)-3-chloro-4-(5-(3,5-dimethylisoxazol-4-yl)-1-(tetrahydrofuran-3-yl)-1H-pyrrolo[2,3-b]pyridin-3-yl)-5-(trifluoromethoxy)benzoic acid]",0.1 to 1000 nM
9,"Cc1noc(C)c1-c1cnc2c(c1)c(-c1ccc(C(=O)O)cc1OC1CCC1)cn2-c1cnc(N2CCC2)nc1 [P-0347, 4-(1-(2-(azetidin-1-yl)pyrimidin-5-yl)-5-(3,5-dimethylisoxazol-4-yl)-1H-pyrrolo[2,3-b]pyridin-3-yl)-3-cyclobutoxybenzoic acid]",0.1 to 1000 nM
10,"Cc1noc(C)c1-c1cnc2c(c1)c(-c1c(F)cc(C(=O)O)cc1OCC(F)F)cn2-c1cnc(N2CCC2)nc1 [P-0348, 4-(1-(2-(azetidin-1-yl)pyrimidin-5-yl)-5-(3,5-dimethylisoxazol-4-yl)-1H-pyrrolo[2,3-b]pyridin-3-yl)-3-(2,2-difluoroethoxy)-5-fluorobenzoic acid]",0.1 to 1000 nM
11,"Cc1nn(C(F)F)cc1-n1cc(-c2ccc(C(=O)O)cc2OCC(F)F)c2cc(-c3c(C)noc3C)cnc21 [P-0349, 3-(2,2-difluoroethoxy)-4-(1-(1-(difluoromethyl)-3-methyl-1H-pyrazol-4-yl)-5-(3,5-dimethylisoxazol-4-yl)-1H-pyrrolo[2,3-b]pyridin-3-yl)benzoic acid]",0.1 to 1000 nM
12,"Cc1noc(C)c1-c1cnc2c(c1)c(-c1ccc(C(=O)O)cc1OC1CCC1)cn2[C@H]1CCOC1 [P-0350, (S)-3-cyclobutoxy-4-(5-(3,5-dimethylisoxazol-4-yl)-1-(tetrahydrofuran-3-yl)-1H-pyrrolo[2,3-b]pyridin-3-yl)benzoic acid]",0.1 to 1000 nM
13,"Cc1nn(C(F)F)cc1-n1cc(-c2ccc(C(=O)O)cc2OC2CCC2)c2cc(-c3c(C)noc3C)cnc21 [P-0351, 3-cyclobutoxy-4-(1-(1-(difluoromethyl)-3-methyl-1H-pyrazol-4-yl)-5-(3,5-dimethylisoxazol-4-yl)-1H-pyrrolo[2,3-b]pyridin-3-yl)benzoic acid]",0.1 to 1000 nM
14,"Cc1noc(C)c1-c1cnc2c(c1)c(-c1c(Cl)cc(C(=O)O)cc1OCC(F)F)cn2-c1cnn(C(F)F)c1C [P-0352, 3-chloro-5-(2,2-difluoroethoxy)-4-(1-(1-(difluoromethyl)-5-methyl-1H-pyrazol-4-yl)-5-(3,5-dimethylisoxazol-4-yl)-1H-pyrrolo[2,3-b]pyridin-3-yl)benzoic acid]",0.1 to 1000 nM
15,"Cc1noc(C)c1-c1cnc2c(c1)c(-c1ccc(C(=O)O)cc1OC1CCC1)cn2-c1cnn(C(F)F)c1C [P-0353, 3-cyclobutoxy-4-(1-(1-(difluoromethyl)-5-methyl-1H-pyrazol-4-yl)-5-(3,5-dimethylisoxazol-4-yl)-1H-pyrrolo[2,3-b]pyridin-3-yl)benzoic acid]",0.1 to 1000 nM
16,"Cc1noc(C)c1-c1cnc2c(c1)c(-c1ccc(C(=O)O)cc1OC(C)C)cn2-c1cnn(C(F)F)c1C [P-0354, 4-(1-(1-(difluoromethyl)-5-methyl-1H-pyrazol-4-yl)-5-(3,5-dimethylisoxazol-4-yl)-1H-pyrrolo[2,3-b]pyridin-3-yl)-3-isopropoxybenzoic acid]",0.1 to 1000 nM
17,"Cc1noc(C)c1-c1cnc2c(c1)c(-c1c(Cl)cc(C(=O)O)cc1OC(F)(F)F)cn2C1CCOCC1 [P-0355, 3-chloro-4-(5-(3,5-dimethylisoxazol-4-yl)-1-(tetrahydro-2H-pyran-4-yl)-1H-pyrrolo[2,3-b]pyridin-3-yl)-5-(trifluoromethoxy)benzoic acid]",0.1 to 1000 nM
18,"Cc1noc(C)c1-c1cnc2c(c1)c(-c1c(Cl)cc(C(=O)O)cc1OC1CCC1)cn2C(C1CC1)C1CC1 [P-0356, 3-chloro-5-cyclobutoxy-4-(1-(dicyclopropylmethyl)-5-(3,5-dimethylisoxazol-4-yl)-1H-pyrrolo[2,3-b]pyridin-3-yl)benzoic acid]",0.1 to 1000 nM
19,"Cc1noc(C)c1-c1cnc2c(c1)c(-c1ccc(C(=O)O)cc1OC(C)C)cn2C1CCOCC1 [P-0357, 4-(5-(3,5-dimethylisoxazol-4-yl)-1-(tetrahydro-2H-pyran-4-yl)-1H-pyrrolo[2,3-b]pyridin-3-yl)-3-isopropoxybenzoic acid]",0.1 to 1000 nM
20,"Cc1noc(C)c1-c1cnc2c(c1)c(-c1c(Cl)cc(C(=O)O)cc1OC1CCC1)cn2C1CCOCC1 [P-0358, 3-chloro-5-cyclobutoxy-4-(5-(3,5-dimethylisoxazol-4-yl)-1-(tetrahydro-2H-pyran-4-yl)-1H-pyrrolo[2,3-b]pyridin-3-yl)benzoic acid]",0.1 to 1000 nM
21,"Cc1noc(C)c1-c1cnc2c(c1)c(-c1c(Cl)cc(C(=O)O)cc1OCC(F)F)cn2C1CCOCC1 [P-0359, 3-chloro-5-(2,2-difluoroethoxy)-4-(5-(3,5-dimethylisoxazol-4-yl)-1-(tetrahydro-2H-pyran-4-yl)-1H-pyrrolo[2,3-b]pyridin-3-yl)benzoic acid]",0.1 to 1000 nM
22,"CCOc1cc(C(=O)O)c(F)cc1-c1cn([C@H]2CCOC2)c2ncc(-c3c(C)noc3C)cc12 [P-0360, (S)-4-(5-(3,5-dimethylisoxazol-4-yl)-1-(tetrahydrofuran-3-yl)-1H-pyrrolo[2,3-b]pyridin-3-yl)-5-ethoxy-2-fluorobenzoic acid]",0.1 to 1000 nM
23,"Cc1noc(C)c1-c1cnc2c(c1)c(-c1c(Cl)cc(C(=O)O)cc1OC1CCC1)cn2[C@H]1CCOC1 [P-0361, (S)-3-chloro-5-cyclobutoxy-4-(5-(3,5-dimethylisoxazol-4-yl)-1-(tetrahydrofuran-3-yl)-1H-pyrrolo[2,3-b]pyridin-3-yl)benzoic acid]",0.1 to 1000 nM
24,"COc1cc(C(=O)O)ncc1-c1cn(C2CCOCC2)c2ncc(-c3c(C)noc3C)cc12 [P-0362, 5-(5-(3,5-dimethylisoxazol-4-yl)-1-(tetrahydro-2H-pyran-4-yl)-1H-pyrrolo[2,3-b]pyridin-3-yl)-4-methoxypicolinic acid]",0.1 to 1000 nM
25,"Cc1noc(C)c1-c1cnc2c(c1)c(-c1c(Cl)cc(C(=O)O)cc1OC1CC1)cn2C(C1CC1)C1CC1 [P-0363, 3-chloro-5-cyclopropoxy-4-(1-(dicyclopropylmethyl)-5-(3,5-dimethylisoxazol-4-yl)-1H-pyrrolo[2,3-b]pyridin-3-yl)benzoic acid]",0.1 to 1000 nM
26,"Cc1noc(C)c1-c1cnc2c(c1)c(-c1ccc(C(=O)O)cc1OC(F)(F)F)cn2CC1(C#N)CCC1 [P-0364, 4-(1-((1-cyanocyclobutyl)methyl)-5-(3,5-dimethylisoxazol-4-yl)-1H-pyrrolo[2,3-b]pyridin-3-yl)-3-(trifluoromethoxy)benzoic acid]",0.1 to 1000 nM
27,"Cc1nn(CC(C)(C)O)cc1-n1cc(-c2ccc(C(=O)O)cc2OC(F)(F)F)c2cc(-c3c(C)noc3C)cnc21 [P-0365, 4-(5-(3,5-dimethylisoxazol-4-yl)-1-(1-(2-hydroxy-2-methylpropyl)-3-methyl-1H-pyrazol-4-yl)-1H-pyrrolo[2,3-b]pyridin-3-yl)-3-(trifluoromethoxy)benzoic acid]",0.1 to 1000 nM
28,"Cc1nn(CC(=O)N(C)C)cc1-n1cc(-c2ccc(C(=O)O)cc2OC(F)(F)F)c2cc(-c3c(C)noc3C)cnc21 [P-0366, 4-(1-(1-(2-(dimethylamino)-2-oxoethyl)-3-methyl-1H-pyrazol-4-yl)-5-(3,5-dimethylisoxazol-4-yl)-1H-pyrrolo[2,3-b]pyridin-3-yl)-3-(trifluoromethoxy)benzoic acid]",0.1 to 1000 nM
29,"Cc1cc(C(=O)O)cc(OCC(F)F)c1-c1cn(C2CCOCC2)c2ncc(-c3c(C)noc3C)cc12 [P-0367, 3-(2,2-difluoroethoxy)-4-(5-(3,5-dimethylisoxazol-4-yl)-1-(tetrahydro-2H-pyran-4-yl)-1H-pyrrolo[2,3-b]pyridin-3-yl)-5-methylbenzoic acid]",0.1 to 1000 nM
